# Experimental data taken from US8334304B2, “Aminosulfonyl substituted 4-(aminomethyl)-piperidine benzamides as 5HT4-antagonists” (Janssen Pharmaceutica N.V., priority 2003, dated 2012).
# Counter-ions that a name gives are not always drawn. Like-named read-outs stand apart in the source and are kept apart here.
# Experiments:
# h5-HT4b = target: T1, h5-HT4b (Homo sapiens, UniProt Q13639); assay: 5HT4 antagonism: [3H]GR113808 binding to membranes of h5-HT4b-HEK 293 clone 9 cells; conditions: 30 min at 25° C.
# T1 construct: expressed in transfected cells; host or cells: HEK 293 (clone 9), membrane preparation
# T1 sequence (Q13639 whole entry): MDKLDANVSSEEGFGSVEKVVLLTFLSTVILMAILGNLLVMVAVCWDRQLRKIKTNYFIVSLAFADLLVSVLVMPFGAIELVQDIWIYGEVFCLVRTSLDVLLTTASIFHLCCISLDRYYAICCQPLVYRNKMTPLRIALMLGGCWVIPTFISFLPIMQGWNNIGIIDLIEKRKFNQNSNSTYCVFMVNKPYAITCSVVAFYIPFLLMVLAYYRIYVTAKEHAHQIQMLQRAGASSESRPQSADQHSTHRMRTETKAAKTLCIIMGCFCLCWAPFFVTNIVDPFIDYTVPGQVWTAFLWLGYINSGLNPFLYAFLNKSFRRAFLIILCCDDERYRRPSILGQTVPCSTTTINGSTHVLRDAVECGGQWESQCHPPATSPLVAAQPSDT
# Experimental: The cells were then scraped from the plates and suspended in 50 mM Tris-HCl buffer, pH 7.4 and harvested by centrifugation at 23,500 rpm for 10 minutes. The pellet was resuspended in 5 mM Tris-HCl, pH 7.4 and homogenized with an Ultra Turrax homogenizer. The membranes were collected by centrifugation at 30,000 rpm for 20 min, resuspended in 50 mM Tris-HCl pH 7.4 and stored at −80° C. […] 50 μl of 10% DMSO was added for total binding. 50 μl of 1 μM of (+)-trans-(1-butyl-3-hydroxy-4-piperidinyl)methyl 8-amino-7-chloro-2,3-dihydro-1,4-benzodioxin-5-carboxylate (a proprietary 5HT4 agonist of Janssen Pharmaceutica) was added for determination of non-specific binding. The [^3H]GR113808 assay buffer was 50 mM HEPES-NaOH, pH 7.4. The mixtures were incubated for 30 min at 25° C. The incubation was terminated by filtration over a Unifilter 96 GF/B presoaked in 0.1% polyethylenimine, followed by six washing steps with 50 mM HEPES-NaOH, pH 7.4.
# [1] = Metabolic stability: incubation with liver microsomes and NADPH-generating system, LC-MS; format: in vitro ADME; conditions: compound 5 μM, microsomes 1 mg/ml, 37 degrees Celsius
# Experimental: Sub-cellular tissue preparations were made according to Gorrod et al. (Xenobiotica 5: 453-462, 1975) by centrifugal separation after mechanical homogenization of tissue. Liver tissue was rinsed in ice-cold 0.1 M Tris-HCl (pH 7.4) buffer to wash excess blood. Tissue was then blotted dry, weighed and chopped coarsely using surgical scissors. The tissue pieces were homogenized in 3 volumes of ice-cold 0.1 M phosphate buffer (pH 7.4).
# Tissue homogenates were centrifuged at 9000×g for 20 minutes at 4° C. The resulting supernatant was stored at −80° C. and is designated ‘S9’.
# The S9 fraction can be further centrifuged at 100.000×g for 60 minutes (4° C.). The resulting supernatant was carefully aspirated, aliquoted and designated ‘cytosol’. The pellet was re-suspended in 0.1 M phosphate buffer (pH 7.4) in a final volume of 1 ml per 0.5 g original tissue weight and designated ‘microsomes’.
# All sub-cellular fractions were aliquoted, immediately frozen in liquid nitrogen and stored at −80° C. until use.
# Control samples contained the same material but the microsomes were replaced by heat inactivated (10 minutes at 95 degrees Celsius) microsomes. Recovery of the compounds in the control samples was always 100%.
# The mixtures were preincubated for 5 minutes at 37 degrees Celsius. The reaction was started at time point zero (t=0) by addition of 0.8 mM NADP and the samples were incubated for 60 minutes (t=60). The reaction was terminated by the addition of 2 volumes of DMSO. Then the samples were centrifuged for 10 minutes at 900×g and the supernatants were stored at room temperature for no longer as 24 hours before analysis. All incubations were performed in duplo. Analysis of the supernatants was performed with LC-MS analysis. Elution of the samples was performed on a Xterra MS C18 (50×4.6 mm, 5 μm, Waters, US). An Alliance 2790 (Supplier: Waters, US) HPLC system was used. Elution was with buffer A (25 mM ammoniumacetate (pH 5.2) in H2O/acetonitrile (95/5)), solvent B being acetonitrile and solvent C methanol at a flow rate of 2.4 ml/min. The gradient employed was increasing the organic phase concentration from 0% over 50% B and 50% C in 5 min up to 100% B in 1 minute in a linear fashion and organic phase concentration was kept stationary for an additional 1.5 minutes. Total injection volume of the samples was 25 μl.
# A Quatro triple quadrupole mass spectrometer fitted with and ESP source was used as detector. The source and the desolvation temperature were set at 120 and 350° C. respectively and nitrogen was used as nebuliser and drying gas. Data were acquired in positive scan mode (single ion reaction). Cone voltage was set at 10 V and the dwell time was 1 second.
# Metabolic stability was expressed as % metabolism of the compound after 60 minutes (equation given as example) of incubation in the presence of active microsomes (E(act))
# [2] = displacement of 0.1 nM [3H]GR113808, membranes of h5-HT4b-HEK 293 cells, read-out: pIC50 (converted)
SMILES,melting point [°C],IC50 (h5-HT4b; [2]) [nM],% metabolised compound after 60 minutes [1] [%],"IC50 (h5-HT4b; pIC50, displacement of 0.1 nM [3H]GR113808, membranes of h5-HT4b-HEK 293 cells) [nM]"
Cc1ccc(C(=O)NC[C@@H]2CCN(CCCC(=O)NS(C)(=O)=O)C[C@H]2O)c2c1OCCCO2 (as salt: hydrochloride) [Compound 27],142,,,
Nc1cc2c(c(C(=O)NC[C@@H]3CCN(CCCS(N)(=O)=O)C[C@H]3O)c1)OCCCO2 (relative stereo) [Compound 8],186,50.1,,
Cc1cc2c(c(C(=O)NC[C@@H]3CCN(CCCS(=O)(=O)NC(C)C)C[C@H]3O)c1)OCCCO2 (relative stereo) [Compound 11],,3.98,,
Cc1cc2c(c(C(=O)NC[C@@H]3CCN(CCCS(=O)(=O)Nc4ccccc4)C[C@H]3O)c1)OCCCO2 (relative stereo) [Compound 12],,1.62,,
NS(=O)(=O)CCCCN1CC[C@@H](CNC(=O)c2cc(Cl)c(Cl)c3c2OCCCO3)[C@H](O)C1 (relative stereo) [Compound 30],,1.7,12,
CNS(=O)(=O)CCCN1CC[C@@H](CNC(=O)c2cc(Cl)cc3c2OCCCO3)[C@H](O)C1 (relative stereo) [Compound 33],,2.19,,
CO[C@@H]1CN(CCCCS(N)(=O)=O)CC[C@H]1CNC(=O)c1cc(F)cc2c1OCCCO2 (relative stereo) [Compound 44],,3.72,27,
COc1ccc(C(=O)NCC2CCN(CCCCS(N)(=O)=O)CC2OC)c2c1OCCO2 (stereo not shown) [Compound 6],,28.8,9,
NS(=O)(=O)CCCCN1CC[C@@H](CNC(=O)c2cc(F)cc3c2OCCO3)[C@H](O)C1 [Compound 7],,1.86,3,
Cc1ccc(C(=O)NCC2CCN(CCCS(=O)(=O)Nc3ccccc3)CC2O)c2c1OCCCO2 (stereo not shown) [Compound 10],,1.29,,
Cc1ccc(C(=O)NCC2CCN(CCCS(=O)(=O)NC(C)C)CC2O)c2c1OCCCO2 (stereo not shown) [Compound 13],,3.39,,
CC(C)NS(=O)(=O)CCCN1CCC(CNC(=O)c2cc(Cl)cc3c2OCCCO3)C(O)C1 (stereo not shown) [Compound 14],,1.95,,
CS(=O)(=O)NC(=O)CCCN1CC[C@@H](CNC(=O)c2cc(Cl)cc3c2OCCCO3)[C@H](O)C1 [Compound 15],110,35.5,36,
O=C(NCC1CCN(CCCS(=O)(=O)Nc2ccccc2)CC1O)c1cc(Cl)cc2c1OCCCO2 (stereo not shown) [Compound 17],,1.78,,
Cc1ccc(C(=O)NCC2CCN(CCCS(N)(=O)=O)CC2O)c2c1OCCCO2 (stereo not shown) [Compound 18],,5.25,7,
Cc1cc2c(c(C(=O)NCC3CCN(CCCS(N)(=O)=O)CC3O)c1)OCCCO2 (stereo not shown) [Compound 19],,3.39,14,
Cc1cc2c(c(C(=O)NCC3CCN(CCCCS(N)(=O)=O)CC3O)c1)OCCCO2 (stereo not shown) [Compound 20],,4.68,2,
NS(=O)(=O)CCCN1CCC(CNC(=O)c2cc(Cl)cc3c2OCCCO3)C(O)C1 (stereo not shown) [Compound 21],,3.02,21,
NS(=O)(=O)CCN1CC[C@@H](CNC(=O)c2cc(Cl)cc3c2OCCCO3)[C@H](O)C1 [Compound 22],162,,28.5,5.37

SMILES,melting point [°C],IC50 (h5-HT4b; [2]) [nM],% metabolised compound after 60 minutes [1] [%],"IC50 (h5-HT4b; pIC50, displacement of 0.1 nM [3H]GR113808, membranes of h5-HT4b-HEK 293 cells) [nM]"
Cc1ccc(C(=O)NC[C@@H]2CCN(CCS(N)(=O)=O)C[C@H]2O)c2c1OCCCO2 [Compound 23],,5.75,8,
CNS(=O)(=O)CCCN1CCC(CNC(=O)c2cc(C)cc3c2OCCCO3)C(O)C1 (stereo not shown) [Compound 24],,2.88,53,
Cc1cc2c(c(C(=O)NC[C@@H]3CCN(CCS(N)(=O)=O)C[C@H]3O)c1)OCCCO2 [Compound 25],,8.51,8.5,
NS(=O)(=O)CCCCN1CC[C@@H](CNC(=O)c2cc(Cl)cc3c2OCCCO3)[C@H](O)C1 [Compound 26],,0.676,13,
Cc1ccc(C(=O)NC[C@@H]2CCN(CCCC(=O)NS(C)(=O)=O)C[C@H]2O)c2c1OCCCO2 [Compound 27],,12,5,
NS(=O)(=O)CCCCN1CCC(CNC(=O)c2cc(Cl)c(Br)c3c2OCCCO3)C(O)C1 (stereo not shown) [Compound 31],,0.891,18,
COc1ccc(C(=O)NC[C@@H]2CCN(CCCCS(N)(=O)=O)C[C@H]2O)c2c1OCCCO2 [Compound 32],,3.63,0,
CNS(=O)(=O)CCCN1CC[C@@H](CNC(=O)c2ccc(C)c3c2OCCCO3)[C@H](O)C1 [Compound 34],,1.15,,
NS(=O)(=O)CCCCN1CC[C@@H](CNC(=O)c2cc(F)cc3c2OCCCO3)[C@H](O)C1 [Compound 35],,0.407,15,
Cc1cc2c(c(C(=O)NCC3CCN(CCCCS(N)(=O)=O)CC3O)c1)OCCCO2 (stereo not shown) [Compound 38],,11.2,3,
NS(=O)(=O)CCCCN1CCC(CNC(=O)c2cc(F)cc3c2OCCCO3)C(O)C1 (stereo not shown) [Compound 39],,12.6,2,
COc1ccc(C(=O)NCC2CCN(CCCCS(N)(=O)=O)CC2O)c2c1OCCCO2 (stereo not shown) [Compound 40],,158,0,
COC1CN(CCCS(N)(=O)=O)CCC1CNC(=O)c1cc(C#N)cc2c1OCCCO2 (stereo not shown) [Compound 41],,56.2,,
COC1CN(CCCCS(N)(=O)=O)CCC1CNC(=O)c1cc(Cl)c(Cl)c2c1OCCCO2 (stereo not shown) [Compound 42],,1.51,,
COC1CN(CCCCS(N)(=O)=O)CCC1CNC(=O)c1cc(Cl)c(Br)c2c1OCCCO2 (stereo not shown) [Compound 43],,1.7,,
COC1CN(CCCCS(N)(=O)=O)CCC1CNC(=O)c1cc(Cl)cc2c1OCCCO2 (stereo not shown) [Compound 45],,1.38,,
COC1CN(CCCS(N)(=O)=O)CCC1CNC(=O)c1cc(F)cc2c1OCCCO2 (stereo not shown) [Compound 46],,4.17,,
COc1ccc(C(=O)NCC2(O)CCN(CCCCS(N)(=O)=O)CC2)c2c1OCCCO2 [Compound 47],,100,0,
Cc1cc2c(c(C(=O)NCC3(O)CCN(CCCCS(N)(=O)=O)CC3)c1)OCCCO2 [Compound 48],,20.9,6,
